The source of these data is patent publication US10836770B2, “Imidazopyridazine compounds useful as modulators of IL-12, IL-23 and/or INF alpha responses” (priority 2016, dated 2020).

Where two headings read alike, the source gives them in different places.

In assay [1] the target is T1, recombinantly expressed His-tagged protein corresponding to amino acids 575-869 of human Tyk2 (Homo sapiens, UniProt P29597).
T1 construct: made in house
Nature of the assay: Probe displacement assay (scintillation proximity, radiolabeled probe). The class given is binding. On the procedure: The probe displacement assay is conducted as follows: In a […], test compounds along with recombinantly expressed His-tagged protein corresponding to amino acids 575-869 of human Tyk2 (sequence shown below) at 2.5 nM, 40 nM ((R)—N-(1-(3-(8-methyl-5-(methylamino)-8H-imidazo[4,5-d]thiazolo[5,4-b]pyridin-2-yl)phenyl)ethyl)-2-([^3H]methylsulfonyl)benzamide) (preparation described below) and 80 μg/mL Copper His-Tag scintillation proximity assay beads (Perkin Elmer, Catalog #RPNQ0095) in 50 mM HEPES, pH 7.5, containing 100 μg/mL bovine serum albumin and 5% DMSO were incubated for 30 minutes at room temperature. […] The IC50 value is defined as the concentration of test compound required to inhibit radiolabeled probe binding by 50%.
Protein Sequence of recombinant Hig-tagged Tyk2 (575-869):
The preparation of radiolabeled probe, (R)—N-(1-(3-(8-methyl-5-(methylamino)-8H-imidazo[4,5-d]thiazolo[5,4-b]pyridin-2-yl)phenyl)ethyl)-2-([^3H]methylsulfonyl)benzamide, was performed as described below: […]
Background: In a scintillation proximity assay essentially only radioactivity close to the scintillant gives light.

For assay [2], the system named is IL-23-stimulated Kit225 T cells with STAT-dependent luciferase reporter. In words: Kit225 T cell assay, IL-23 stimulated STAT-dependent luciferase reporter. The class given is cell-based, human. On the procedure:
(§1) Kit225 T cells with a stably-integrated STAT-dependent luciferase reporter were plated in RPMI (GIBCO) containing 10% heat-inactivated FBS (GIBCO) and 100 U/mL PenStrep (GIBCO). The cells were then stimulated with either 20 ng/mL human recombinant IL-23 or 200 U/mL human recombinant IFNα (PBL InterferonSource) for 5-6 hours. Luciferase expression was measured using the STEADY-GLO® Luciferase Assay System (PROMEGA®) according to the manufacturer's instructions.

The test system of assay [3] is IFNα-stimulated Kit225 T cells with STAT-dependent luciferase reporter. In words: Kit225 T cell assay, IFNα stimulated STAT-dependent luciferase reporter. It is filed as cell-based, human. The method, then: as §1
Where [4] appears, read: Homo sapiens, KIT225, read-out: IL-23 Kit225 Reporter, LE (IC50, uM).
The mark [5] stands for this setting: Homo sapiens, KIT225, read-out: IFNa Kit225 Reporter, LE (IC50, uM).

T1 sequence (P29597 with tags, fused parts or gaps): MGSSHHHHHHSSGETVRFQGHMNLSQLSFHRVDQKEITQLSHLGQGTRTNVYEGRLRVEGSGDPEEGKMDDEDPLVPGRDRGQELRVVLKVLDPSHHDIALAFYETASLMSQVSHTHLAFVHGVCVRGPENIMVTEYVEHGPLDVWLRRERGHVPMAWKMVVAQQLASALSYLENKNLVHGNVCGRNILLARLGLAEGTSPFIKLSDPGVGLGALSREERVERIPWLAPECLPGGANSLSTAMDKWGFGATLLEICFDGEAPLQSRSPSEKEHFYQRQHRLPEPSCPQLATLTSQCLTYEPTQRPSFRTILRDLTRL

Usually EC50 stands for the concentration needed to bring the measured effect to its halfway point. The term IC50 denotes the concentration needed to halve the response being measured. Regarding `CCNC(=O)c1nscc1Nc1cc(NC)c2ncc(C(=O)N[C@@H]3C[C@@H]3F)n2n1` [Example 73], in assay [1], the EC50 amounted to 20 nM. For the same compound, the concentration for half-maximal inhibition (IC50) is 0.16 µM in assay [2] (setting [4]) and 0.2 µM in assay [3] (setting [5]).
The corresponding values for `CCNC(=O)c1nscc1Nc1cc(NC)c2ncc(C(=O)NC(CO)CO)n2n1` [Example 74] are 7.25 nM, 0.07 µM and 0.02 µM.
The matching figures for `CCNC(=O)c1nscc1Nc1cc(NC)c2ncc(C(=O)NCc3nccs3)n2n1` [Example 75]: 10 nM, 3.31 µM and 2.29 µM.
As for `CNC(=O)c1ncsc1Nc1cc(NC)c2ncc(C(=O)NC3CC3)n2n1` [Example 77], the EC50 in assay [1] (2.5 nM Tyk2 (575-869), 40 nM [3H] probe, 30 minutes at room temperature, read-out: Probe Displacement EC50) was 20 nM. In addition, the IC50 in assay [2] (Kit225 T cells, 20 ng/mL human recombinant IL-23, 5-6 hours, luciferase, read-out: IL-23 Kit225 Reporter, LE (IC50)) stood at 0.57 µM; in assay [3] (Kit225 T cells, 200 U/mL human recombinant IFNα, 5-6 hours, luciferase, read-out: IFNa Kit225 Reporter, LE (IC50)) it was 0.22 µM.
Take `CNC(=O)c1ncsc1Nc1cc(NC)c2ncc(C(=O)NC3CC3)n2n1` [Example 78, 5-((3-(cyclopropylcarbamoyl)-8-(methylamino)imidazo[1,2-b]pyridazin-6-yl)amino)-N-methylthiazole-4-carboxamide]: the concentration for a half-maximal effect (EC50) in assay [1] stood at 10 nM. Moreover, the half-inhibitory concentration (IC50) in assay [2] (setting [4]) was 0.12 µM; in assay [3] (setting [5]), 0.26 µM.
The matching figures for `CCNC(=O)c1ncsc1Nc1cc(NC)c2ncc(C(=O)NC3CC3)n2n1` [Example 79]: 20 nM, 0.32 µM and 0.15 µM.
Take `CCCNC(=O)c1ncsc1Nc1cc(NC)c2ncc(C(=O)NC3CC3)n2n1` [Example 80]: the concentration for a half-maximal effect (EC50) in assay [1] was determined as 20 nM. The half-maximal inhibitory concentration (IC50) stood at 0.14 µM in assay [2] (setting [4]) and 0.13 µM in assay [3] (setting [5]).
The corresponding values for `CNc1cc(Nc2scnc2C(=O)NC(C)C)nn2c(C(=O)NC3CC3)cnc12` [Example 81] are 3.24 nM, 0.3 µM and 0.31 µM.
`CNc1cc(Nc2scnc2C(=O)Nc2ccccc2)nn2c(C(=O)NC3CC3)cnc12` [Example 82]: the EC50 in assay [1] is 3.95 nM. Besides, the IC50 was found to be 0.19 µM in assay [2] (setting [4]) and 0.35 µM in assay [3] (setting [5]).
With `CNc1cc(Nc2scnc2C(=O)Nc2cccnc2)nn2c(C(=O)NC3CC3)cnc12` [Example 83], the half-maximal effective concentration (EC50) in assay [1] is 10 nM. Moreover, the half-maximal inhibitory concentration (IC50) in assay [2] (setting [4]) amounted to 0.16 µM; in assay [3] (setting [5]), 1.76 µM.
The matching figures for `CNC(=O)c1nc(C)sc1Nc1cc(NC)c2ncc(C(=O)NC3CC3)n2n1` [Example 84, 5-((3-(cyclopropylcarbamoyl)-8-(methylamino)imidazo[1,2-b]pyridazin-6-yl)amino)-N,2-dimethylthiazole-4-carboxamide]: 4.51 nM, 0.11 µM and 0.18 µM.
As to `CNc1cc(Nc2sc(C)nc2C(=O)NC(C)C)nn2c(C(=O)NC3CC3)cnc12` [Example 85], in assay [1], the 50% effective concentration (EC50) turned out to be 26.7 nM. Besides, the half-inhibitory concentration (IC50) stood at 0.256 µM in assay [2] (setting [4]) and 0.224 µM in assay [3] (setting [5]).
